Experimental data taken from patent US20130195926A1, “MODULATION OF NITRIC OXIDE SIGNALING TO NORMALIZE TUMOR VASCULATURE” (The General Hospital Corporation, priority 2007, published 2013).

Assays:
nNOS [1] = assay: Western blot of nNOS knockdown in cultured nNOS shRNA-transfected U87 cells; format: cell-based, human
Procedure: U87MG (American Type Culture Collection HTB-14) and GL261 (generous gift from Dr. G. Yancey Gillespie at University of Alabama) tumor cells were cultured in Dulbecco's Modified Eagle's Medium with 10% fetal bovine serum at 37° C. in a humidified 5% CO2 incubator. The following short-hairpin RNAs (shRNAs) for nNOS were designed using a commercial service program for small interfering RNA (siRNA) target finder (http://www.ambion.com/techlib/misc/siRNA_finder.html): nNOS-shRNA58, CAAAGAGATCGACACCATC (sense), […] (antisense); nNOSshRNA97, CACGCATGTCTGGAAAGGC (sense), […](antisense); nNOS-shRNA150, GGTCTATCCAATGTCCACA (sense), […] (antisense). The DNA oligonucleotides consist of a 19-nucleotide sense siRNA sequence linked to its reverse complementary antisense siRNA sequence by a short spacer (TTCAAGAGA).
Each DNA oligonucleotide was prepared with nucleotide overhangs with BamHI and HindIII restriction sites added to the 5′ and 3′ end of the DNA oligonucleotides and subcloned into the pSilencer 3.1 H-1-hygro (Ambion) that allows transcription of the shRNA. These expression vectors were stably transfected into U87MG cells using LipofectAMINE 2000 (Invitrogen) following the manufacturer's instruction.
The stably transfected cells were selected with 80 μg/ml of hygromycin B. The expression of nNOS protein in U87 tumor cells and tissues was determined by'Western blot analysis. […]
Equal amounts of 60 micrograms of protein per sample were separated on 7.5% SDS polyacrylamide gels, transferred onto polyvinylidene fluoride membrane (Millipore), incubated with primary antibodies followed by secondary antibodies (the same antibodies used in immunohistochemistry studies. See Immunohistochemistry methods below), and detected using enhanced chemiluminescence (GE Healthcare) by exposure on autoradiography films (Kodak) (Xu, L., et al. 2005 Cancer Res. 65, 5711-5719; Canneliet, P., et al. 1998 Nature 394, 485-490; Xu, L., et al. 2002 Journal of Biological Chemistry 277, 11368-11374 (2002); and Xu, L., et al. 2004 Clinical Cancer Research 10, 701-707). […]

nNOS [2] = assay: Western blot of nNOS knockdown in U87 tumors grown in cranial windows; format: in vivo; conditions: U87 tumors in cranial windows in Rag-1-/- mice
Procedure: The stably transfected cells were selected with 80 μg/ml of hygromycin B. The expression of nNOS protein in U87 tumor cells and tissues was determined by'Western blot analysis. Cultured U87MG cells washed with PBS and U87MG tumors homogenized by a tissue grinder were solubilized in 40 mM Tris-HCl, pH 6.8, 2% SDS, 10% glycerol, 1% β-mercaptoethanol, 0.01% bromophenol blue with one Complete Mini Protease Inhibitor Cocktail tablet (Roche Diagnostics) per 50 ml buffer.
Equal amounts of 60 micrograms of protein per sample were separated on 7.5% SDS polyacrylamide gels, transferred onto polyvinylidene fluoride membrane (Millipore), incubated with primary antibodies followed by secondary antibodies (the same antibodies used in immunohistochemistry studies. See Immunohistochemistry methods below), and detected using enhanced chemiluminescence (GE Healthcare) by exposure on autoradiography films (Kodak) (Xu, L., et al. 2005 Cancer Res. 65, 5711-5719; Canneliet, P., et al. 1998 Nature 394, 485-490; Xu, L., et al. 2002 Journal of Biological Chemistry 277, 11368-11374 (2002); and Xu, L., et al. 2004 Clinical Cancer Research 10, 701-707).
(§1) Recombination activating gene 1 (Rag-1^−/−) mice backcrossed to C57BL/6 background or severe combined immunodeficiency (SCID) mice, bred and maintained in an gnotobiotic animal facility, were used. To obtain source tumor tissue, U87 tumor cells in culture (1×10^6 cells) were injected subcutaneously into Rag-1^−/− or SCID mice matching the recipient mice. When the tumor reached about 8 mm in diameter, it was excised after euthanasia and a small piece (about 1 mm^3) of viable tumor tissue was implanted into a cranial window or subcutaneously into the calf area of the right hindlegs of the mice as previously described (Kashiwagi, S., et al. 2005 J. Clin. Invest. 115, 1816-1827; Kozin, S. V., et al. 2001 Cancer Research 61, 39-44). […]
U87 with nNOS shRNA (shRNA58, shRNA97, and shRNA150) were grown in cranial windows in Rag-1^−/− mice. Expression of nNOS in these tumors was determined by Western blot analysis. […]

U87 gliomas = assay: NO distribution in U87 gliomas by DAF-2T fluorescence (MPLSM); format: in vivo, mice; conditions: animals treated with L-NMMA compared to D-NMMA
Procedure: FIGS. 3A-B show microfluorographs depicting NO distribution in U87 gliomas grown in the cranial window in Rag-1^−/−. NO production was visualized by means of DAF-2T fluorescence 0, 20, 40 and 60 min after DAF-2 (0.5 mg/body) injection. Left column, micro-angiography with tetramethylrhodamine-dextran (2000 kDa). Middle column, representative DAF-2T microfluorography captured 60 min after the loading of DAF-2 in tumors. Right column, pseudocolor representation of DAF-2T microfluorographs. […] Bars indicate 100 μm. (A) NO distribution in parental U87MG (top row) or nNOS shRNA58-transfected-U87 (bottom row) tumors. […]
(§2) Vascular parameters such as functional vessel density (the total length of perfused microvessels per unit area) and vessel diameter were analyzed by tracing each vessel segment using NIH image 1.63 as described elsewhere (Kashiwagi, S., et al. 2005 J. Clin. Invest. 115, 1816-1827). Tissue distribution of NO was visualized using MPLSM and the NO-sensitive fluorescence probe 4,5-diaminofluorescein (DAF-2) (0.5 mg i.v. Daiichi Pure Chemicals Co. Ltd) as described previously (Kashiwagi, S., et al. 2005 J. Clin. Invest. 115, 1816-1827). NO converts DAF-2 to 4,5-diaminofluorescein triazolium (DAF-2T) increasing fluorescence by a factor of 200. The DAF-2 associated fluorescence images were captured 60 min after i.v. injection. […]

U87MG tumors = assay: Vessel morphology of U87 tumors in the cranial window by intravital microscopy; format: in vivo, mice; conditions: L-NMMA 7 mg/day by osmotic pump vs D-NMMA, SCID mice
Procedure: as §1, with “39-44). All animal procedures were carried oat following the Public Health Service Policy on Humane Care of Laboratory Animals and approved by the Institutional Animal Care and Use Committee of Massachusetts General Hospital.” for “39-44).”
Angiogenesis and vessel morphology were determined in U87 and GL261 tumors grown in the cranial windows by intravital microscopy using multiphoton laserscanning microscopy (MPLSM) or single photon fluorescence microscopy (SPFM) when tumors reached about 7 mm^2. […] Using MPLSM, five locations with 200-μm thick imaging stack were recorded for each tumor. […]
as §2

10T1/2 cells = assay: Transwell migration of 10T1/2 cells toward HUVECs; format: cell-based; conditions: Sildenafil+L-NMMA
Procedure: FIGS. 13A-C show the role of the NO-sGC-cGMP pathway in perivascular cell recruitment and migration. (A) In bar graph form, cGMP production in cultured 10T1/2 cells in response to NO donor or PDE5 inhibitor. (B) In bar graph form, the migration of 10T1/2 cells in a transwell assay. 10T1/2 cell migration was assessed using Falcon HTS FluoroBlok inserts with 1 μm pores. GFP-expressing 10T1/2 cells were inoculated in the inserts, and HUVECs were inoculated in the outer well. Percent area of transwell filter covered by migrated 10T1/2 cells was determined. Medium only indicates no HUVECs in the outer well. ODQ, T-1032, Sildenafil, or Sildenafil+L-NMMA were added to the medium. *P<0.05 vs. control (HUVEC). (C) Images for transmigrated GFP-10T1/2 cells at the back side of the Fluoroblock insert after 10 hours with control vs. T-1032 treatment.
FIGS. 14A-B show the effect of PI3K inhibition on transwell migration of 10T1/2 cells toward HUVECs. 10T1/2 cell migration was assessed using Falcon HTS FluoroBlock inserts with 1 μm pores. GFP-expressing 10T1/2 cells were inoculated in the inserts and human umbilical vein endothelial cells (HUVECs) were inoculated in the outer well. (A) Images for transmigrated GFP-10T1/2 cells at the back side of the FluoroBlock insert after 16 hours. Images are 865 μm across. (B) Quantification of 10T1/2 cell transwell migration. Data are expressed as percentage relative to the control (HUVEC) migration of the same experimental batch. Medium represents no HUVECs in the outer well. LS294002 10 μM was added. n=4 each. *p<0.05 as compared to the control (HUVEC).
The effect of sGC inhibitor was next examined on 10T1/2 cell migration. […] Finally, the effect of PDE5 inhibitors on 10T1/2 cell migration was examined. […] L-NMMA abolished induction of 10T1/2 cell migration induced by Sildenafil. (Mann-Whitney U-test).
To elucidate the downstream signaling pathway of NO-dependent perivascular cell recruitment, the effect of PI3K inhibitor […] (10 μM) on the transwell 10T1/2 cell migration toward HUVECs was determined (FIG. 14A-B).

| Molecule | Knockdown efficiency of nNOS in vitro (nNOS [1]) [%] | Knockdown efficiency of nNOS in vivo (nNOS [2]) [%] | DAF-associated fluorescence (NO production) (U87 gliomas) | vessel density (U87MG tumors) | vessel diameter (U87MG tumors) | induction of 10T1/2 cell migration induced by Sildenafil (10T1/2 cells) |
| --- | --- | --- | --- | --- | --- | --- |
| shRNA97: short-hairpin RNA for nNOS, CACGCATGTCTGGAAAGGC (sense), GCCTTTCCAGACATGCGTGTT (antisense), in pSilencer 3.1 H-1-hygro | 98 | 67 | – | – | – | – |
| CC(=O)O.CNC(=N)NCCC[C@H](N)C(=O)O [L-NMMA, NG-Monomethyl-L-arginine monoacetate] | – | – | abolished | decreased | increased | abolished |
